Measured values: patent US20240408064A1, “RAS INHIBITORS, COMPOSITIONS AND METHODS OF USE THEREOF” (GENETOLEAD INC., priority 2021, published 2024)
Entries after “also recorded” stand apart in the source; their conditions may differ.

Assays:
HRas^G12V [1] = biological target: T1, HRas^G12V (Homo sapiens (Human), UniProt P01112, G12V); experiment: 19F DLB (ligand-observed 19F NMR) score; assay type: binding; parameters: scale not given here
Method: (§1) All NMR experiments were collected using 3 mm NMR tubes on a 600 MHz Bruker Avance III spectrometer equipped with a QCI helium cryoprobe and a SampleJet sample changer. The buffer used for NMR experiments was 25 mM sodium phosphate pH 7.4, 150 mM NaCl, 5 mM MgCl2, 1 mM TCEP-d16, 10% D2O. Data were processed using Bruker TopSpin.
(§2) Since the fragment library was curated using phosphate buffer, 25 mM sodium phosphate pH 7.4, 150 mM NaCl, 5 mM MgCl2, 1 mM TCEP-d16, 10% D2O Fresh TCEP was used for experiments. Screening was performed using ^1H-decoupled 1D ^19F experiment Bruker experiment (zgfhigqn.2) with 64 scans and a relaxation delay of 5 seconds. 50 μM HRas^G12V and 240 μM of each fragment in pools (mixtures) were used.
Hit confirmation was performed using the same ^19F experiment as the screen. Ligand-observed 1D ^1H, protein-observed 1D ^1H, ^1H T2-CPMG as well as Saturation Transfer Difference (STD) experiments were also run on the same samples. Ligand-observed 1D ^1H was run using the standard Bruker sequence with excitation sculpting (zgesgp) with a relaxation delay of 10 seconds and 16 scans per spectrum. Protein-observed 1D ^1H was performed using the same sequence with a relaxation delay of 1 second and 256 scans in order to increase the signal-to-noise of the protein resonances, while keeping the experimental time relatively short. The ^1H T2-CPMG experiment employed a modified version of the Bruker 1D ^1H zgesgp experiment with the addition of a CPMG pulse train after the first 90° excitation pulse. Total duration for each spin echo was fixed at 1 ms (τ=500 μs), while the number of echoes in the pulse train was varied according to the total time (T). The number of scans for each spectrum was 4 and eight delay times were run on each sample, ranging from 1 ms to 800 ms. […]

HRas^G12V [2] = biological target: T1, HRas^G12V; experiment: Overall binding/activity in the various assays (NMR consensus binding)
Method: as §2
(§3) Hit confirmation was performed using the same ^19F experiment as the screen. Ligand-observed 1D ^1H, protein-observed 1D ^1H, ^1H T2-CPMG as well as Saturation Transfer Difference (STD) experiments were also run on the same samples. Ligand-observed 1D ^1H was run using the standard Bruker sequence with excitation sculpting (zgesgp) with a relaxation delay of 10 seconds and 16 scans per spectrum. Protein-observed 1D ^1H was performed using the same sequence with a relaxation delay of 1 second and 256 scans in order to increase the signal-to-noise of the protein resonances, while keeping the experimental time relatively short. The ^1H T2-CPMG experiment employed a modified version of the Bruker 1D ^1H zgesgp experiment with the addition of a CPMG pulse train after the first 90° excitation pulse. Total duration for each spin echo was fixed at 1 ms (τ=500 μs), while the number of echoes in the pulse train was varied according to the total time (T). The number of scans for each spectrum was 4 and eight delay times were run on each sample, ranging from 1 ms to 800 ms.
STD experiments consisted of two independent spectra with offsets of 0 ppm (on resonance) and −20 ppm (off resonance). […] 160 scans were acquired for each spectrum.
The results obtained with the compounds in the various assays described above are depicted in Table 21.
Because of its power to probe the intrinsically weak interactions (Kd) between targets and low-molecular weight fragments, NMR fragment-based lead discovery (FBLD) is a very useful biophysical method in early stage drug discovery, especially for challenging target proteins; including those with shallow binding pockets. Since FBLD screens are performed using low-molecular weight compounds (fragments) with lower structural complexity, the same chemical space can be covered using a smaller number of drug-like fragments versus use of large libraries of higher-molecular weight lead-like compounds as in high throughput screening (HTS) campaigns. Therefore, FBLD has a much higher hit rate than HTS using only several hundred to several thousand compounds in comparison with approximately 1 million compounds for HTS. Also, the small size of the compounds screened in FBLD means a better chance to fully match the interactions with small or transient pockets within the target protein, where these less tractable pockets cannot be accessed with standard classical HTS methods. […] We expect this methodology to be more advantageous than classical HTS methods for expediting the time from hit to lead (H2L) and allows for rapid access to high quality leads with lower attrition rates in subsequent lead optimization (LO) campaigns toward pre-clinical candidate selection. FBLD screening by NMR involves a “consensus binding” approach where several distinct NMR experiments (DLB, STD, CPMG) are applied along with a free-state aggregation detection method (T2-CPMG) to rank the compounds for their affinity to the receptor (HRAS in this case) whilst simultaneously monitoring the solution behavior and critical quality attributes of each compound. The latter helps to eliminate artifact binders which are highly problematic. We performed a fluorine screen involving 461 compounds that were derived from a highly curated fragment library. Moreover, two-dimensional ^15N HSQC NMR was also used to validate ligand-binding sites on the target protein. In addition, we employed protein-detected biophysical measurements were employed to determine fragment binding affinities to the target protein (Kd) by HSQC NMR. […]

HRas^G12V [3] = biological target: T1, HRas^G12V; experiment: 19F T2-CPMG NMR score; assay type: binding
Method: as §1, §2, §3
Because of its power to probe the intrinsically weak interactions (Kd) between targets and low-molecular weight fragments, NMR fragment-based lead discovery (FBLD) is a very useful biophysical method in early stage drug discovery, especially for challenging target proteins; including those with shallow binding pockets. Since FBLD screens are performed using low-molecular weight compounds (fragments) with lower structural complexity, the same chemical space can be covered using a smaller number of drug-like fragments versus use of large libraries of higher-molecular weight lead-like compounds as in high throughput screening (HTS) campaigns. Therefore, FBLD has a much higher hit rate than HTS using only several hundred to several thousand compounds in comparison with approximately 1 million compounds for HTS. Also, the small size of the compounds screened in FBLD means a better chance to fully match the interactions with small or transient pockets within the target protein, where these less tractable pockets cannot be accessed with standard classical HTS methods. […] We expect this methodology to be more advantageous than classical HTS methods for expediting the time from hit to lead (H2L) and allows for rapid access to high quality leads with lower attrition rates in subsequent lead optimization (LO) campaigns toward pre-clinical candidate selection. FBLD screening by NMR involves a “consensus binding” approach where several distinct NMR experiments (DLB, STD, CPMG) are applied along with a free-state aggregation detection method (T2-CPMG) to rank the compounds for their affinity to the receptor (HRAS in this case) whilst simultaneously monitoring the solution behavior and critical quality attributes of each compound. The latter helps to eliminate artifact binders which are highly problematic. We performed a fluorine screen involving 461 compounds that were derived from a highly curated fragment library. Moreover, two-dimensional ^15N HSQC NMR was also used to validate ligand-binding sites on the target protein. […]

19F DLB Score (HRas^G12V [1])	Activity ranking on HRas^G12V (in words) (HRas^G12V [2])	19F T2-CPMG Score (HRas^G12V [3])	Binding to HRas^G12V (in words) (HRas^G12V [2])	SMILES
Non conclusive	More active	–	–	O=C(O)C[C@H](c1ccccc1F)c1c[nH]c2cc(F)ccc12 (single isomer, unassigned) [Compound 11052]
2.29	More active; also recorded: Most active	25.91	–	O=C(O)C[C@@H](c1ccccc1F)c1c[nH]c2cc(F)ccc12 (single isomer, unassigned) [Compound 11053]
1.32	–	3.96	low or no binding	O=C(Cc1ccc(F)cc1)NCCc1c[nH]c2cc(F)ccc12 [Compound 10012]
1.57	–	7.79	low or no binding	O=C(Cc1c[nH]c2cc(F)ccc12)NCCN1CCOCC1 [Compound 10015]
–	–	–	low or no binding	COC(=O)c1ccc(NC(=O)Cc2c[nH]c3cc(F)ccc23)cc1Cl [Compound 10017]
–	–	–	low or no binding	CCOC(=O)c1cccc(NC(=O)Cc2c[nH]c3cc(F)ccc23)c1 [Compound 10019]
–	–	–	low or no binding	Cc1c(Cl)cc(NC(=O)Cc2c[nH]c3cc(F)ccc23)cc1Cl [Compound 10022]
1.53	–	6.9	low or no binding	O=C(NCCc1c[nH]c2cc(F)ccc12)[C@@H]1CCCO1 [Compound 10023, (S)—N-(2-(6-fluoro-1H-indol-3-yl)ethyl) tetrahydrofuran-2-carboxamide]
1.06	–	0.01	low or no binding	Cn1cc(CC(=O)N2CCC2)c2ccc(F)cc21 [Compound 10024, 1-(azetidin-1-yl)-2-(6-fluoro-1-methyl-1H-indol-3-yl) ethan-1-one]
1.01	–	1.61	low or no binding	CN1CCC[C@@H]1C(=O)NCCc1c[nH]c2cc(F)ccc12 [Compound 10028]
1.19	–	1.2	low or no binding	O=C(Cc1c[nH]c2cc(F)ccc12)NCCc1cccnc1 [Compound 10029]
1.13	–	1.34	low or no binding	O=C(Cc1c[nH]c2cc(F)ccc12)NCCc1ccc(F)cc1 [Compound 10031]
–	–	–	low or no binding	Cc1ccc(NC(=O)Cc2c[nH]c3cc(F)ccc23)cc1Cl [Compound 10032]
–	–	–	low or no binding	COc1ccc(NC(=O)Cc2c[nH]c3cc(F)ccc23)cc1OC [Compound 10033]
1.6	–	−8.2	low or no binding	CCOC(=O)c1ccc(NC(=O)Cc2c[nH]c3cc(F)ccc23)c(C)c1 [Compound 10034]
1.22	–	2.32	low or no binding	CN1CCC[C@H]1C(=O)NCCc1c[nH]c2cc(F)ccc12 [Compound 10036]
1.25	–	4.07	low or no binding	CCOC(=O)[C@@H](C)NC(=O)Cc1c[nH]c2cc(F)ccc12 [Compound 10037]
1.1	–	2.19	low or no binding	CCOC(=O)[C@H](C)NC(=O)Cc1c[nH]c2cc(F)ccc12 [Compound 10038]
–	–	–	low or no binding	COc1ccccc1C(=O)NCCc1c[nH]c2cc(F)ccc12 [Compound 10043]
–	–	–	low or no binding	CCOC(=O)C(Cc1c[nH]c2ccccc12)NC(=O)Cc1c[nH]c2cc(F)ccc12 (centres unmarked) [Compound 10112]
16.69	–	–	low or no binding	CCOC(=O)CC(c1ccccc1F)c1c[nH]c2cc(F)ccc12 (centres unmarked) [Compound 11045]
2.79	–	22.81	–	O=C(C1CCNCC1)N1CCC(c2c[nH]c3cc(F)ccc23)CC1 [Compound 11047]
Non conclusive	More active	–	–	O=C(O)CC(c1cccc(O)c1)c1c[nH]c2cc(F)ccc12 (centres unmarked) [Compound 11054]
Non conclusive	More active	–	–	O=C(O)CC(c1ccc(O)cc1)c1c[nH]c2cc(F)ccc12 (centres unmarked) [Compound 11055]
Non conclusive	–	–	low or no binding	CC1(C)OC(=O)C(C(c2ccc(F)cc2F)c2c[nH]c3cc(F)ccc23)C(=O)O1 (centres unmarked) [Compound 11058]
–	–	–	low or no binding	CN(C)CC(=O)Nc1cccc(NC(=O)Cc2c[nH]c3cccc(Br)c23)c1 [Compound 11067]
–	–	–	low or no binding	CN(C)CC(=O)Nc1cccc(NC(=O)Cc2c[nH]c3cc(Cl)ccc23)c1 [Compound 11068]
–	–	–	low or no binding	CN(C)CC(=O)Nc1cccc(NC(=O)Cc2c[nH]c3c(Cl)cccc23)c1 [Compound 11070]
–	–	–	low or no binding	CN(C)CC(=O)Nc1cccc(NC(=O)Cc2c[nH]c3cccc(Cl)c23)c1 [Compound 11071]
2.87	–	25.25	–	CN(C)CCOC1CN(C(=O)Cc2c[nH]c3cc(F)ccc23)C1 [compound 10110]

SMILES	19F DLB Score (HRas^G12V [1])	Activity ranking on HRas^G12V (in words) (HRas^G12V [2])	19F T2-CPMG Score (HRas^G12V [3])	Binding to HRas^G12V (in words) (HRas^G12V [2])
O=C(O)Cc1c[nH]c2c(Cl)cccc12 [Compound 11069]	–	–	–	low or no binding
